This assay concerns the target T1, human EP3 receptor (Homo sapiens, UniProt P43115).
T1 construct: expressed in transfected cells; host or cells: CHO K1 (Chinese Hamster Ovary), stably co-transfected with Galpha16 and mitochondrial clytin
T1 sequence (P43115 1-390): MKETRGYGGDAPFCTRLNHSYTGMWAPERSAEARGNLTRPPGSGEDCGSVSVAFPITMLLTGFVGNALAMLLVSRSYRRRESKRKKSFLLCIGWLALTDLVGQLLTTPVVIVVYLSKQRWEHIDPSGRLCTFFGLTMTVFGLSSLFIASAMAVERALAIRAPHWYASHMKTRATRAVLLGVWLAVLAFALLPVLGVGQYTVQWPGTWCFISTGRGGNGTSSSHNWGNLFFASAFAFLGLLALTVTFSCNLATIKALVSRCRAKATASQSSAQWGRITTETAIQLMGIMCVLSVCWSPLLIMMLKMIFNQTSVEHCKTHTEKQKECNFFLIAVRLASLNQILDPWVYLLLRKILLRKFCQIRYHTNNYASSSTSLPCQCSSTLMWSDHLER
The assay is described as follows: Cellular in vitro assay for determining EP3 receptor activity (human EP3 cell line, sulprostone-stimulated calcium luminescence). Format: cell-based. To be noted: CHO cells expressing human EP3 and mitochondrial Clytin; antagonist mode, sulprostone at EC50; read-out: EP3 CHO mtCLY ANTAG IC50. An outline of the steps:
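CHO K1 cells stably expressing human EP3 with Gα16 and mitochondrial Clytin, loaded overnight with coelenterazine. Compounds added 10 min before sulprostone at its EC50; antagonism read immediately as reduced calcium-driven luminescence, quadruplicate points.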
The term IC50 denotes the concentration that gives 50% inhibition. For `Cc1ccc(-c2cn3nc(C(=O)N[C@@H](C)CO)c(C4CC4)c3c(=O)[nH]2)cc1C` [Example 1-155, 3-Cyclopropyl-6-(3,4-dimethylphenyl)-N-[(2S)-1-hydroxpropan-2-yl]-4-oxo-4,5-dihydropyrazolo-[1,5-a]pyrazine-2-carboxamide], the IC50 was found to be 1.5 nM. Turning to `COc1ccc(C2(NC(=O)c3cc4c(=O)[nH]c(-c5ccc(C)c(C)c5)cn4n3)CN(C(C)=O)C2)cc1` [Example 1-156, N-[1-Acetyl-3-(4-methoxyphenyl)azetidin-3-yl]-6-(3,4-dimethylphenyl)-4-oxo-5H-pyrazolo[1,5-a]-pyrazine-2-carboxamide], the IC50 amounted to 3.05 nM. For the molecule `Cc1ccc(-c2cn3nc(C(=O)N[C@@H](c4ccc(F)cc4)C(C)(C)O)c(C4CC4)c3c(=O)[nH]2)cc1F` [Example 1-158], the IC50 was determined as 0.983 nM. To `Cc1ccc(-c2cn3nc(C(=O)N[C@@H](c4ccc(F)cc4)C(C)(C)O)c(C)c3c(=O)[nH]2)cc1F` [Example 1-162, 6-(3-Fluoro-4-methylphenyl)-N-[(1S)-1-(4-fluorophenyl)-2-hydroxy-2-methylpropyl]-3-methyl-4-oxo-4,5-dihydropyrazolo[1,5-a]pyrazine-2-carboxamide] belongs 0.89 nM; to `Cc1ccc(-c2cn3nc(C(=O)N[C@@H](c4ccc(F)cc4)C(C)(C)O)c(C)c3c(=O)[nH]2)c(F)c1F` [Example 1-163, 6-(2,3-Difluoro-4-methylphenyl)-N-[(1S)-1-(4-fluorophenyl)-2-hydroxy-2-methylpropyl]-3-methyl-4-oxo-4,5-dihydropyrazolo[1,5-a]pyrazine-2-carboxamide], 7.8 nM; to `Cc1ccc(-c2cn3nc(C(=O)N[C@@H](c4ccc(F)cc4)C(C)(C)O)c(C)c3c(=O)[nH]2)c(F)c1C` [Example 1-164, 6-(2-Fluoro-3,4-dimethylphenyl)-N-[(15)-1-(4-fluorophenyl)-2-hydroxy-2-methylpropyl]-3-methyl-4-oxo-4,5-dihydropyrazolo[1,5-a]pyrazine-2-carboxamide], 2.9 nM. Turning to `Cc1cc(-c2cn3nc(C(=O)N[C@@H](c4ccc(F)cc4)C(C)(C)O)c(C(F)(F)F)c3c(=O)[nH]2)ccc1Cl` [Example 1-166, 6-(4-Chloro-3-methylphenyl)-N-[(1S)-1-(4-fluorophenyl)-2-hydroxy-2-methylpropyl]-4-oxo-3-(trifluoromethyl)-4,5-dihydropyrazolo[1,5-a]pyrazine-2-carboxamide], the IC50 was found to be 3.15 nM. To `CC(C)(O)[C@@H](NC(=O)c1nn2cc(-c3ccc(Cl)c(F)c3)[nH]c(=O)c2c1C1CC1)c1ccc(F)cc1` [Example 1-167, 6-(4-Chloro-3-fluorophenyl)-3-cyclopropyl-N-[(15)-1-(4-fluorophenyl)-2-hydroxy-2-methylpropyl]-4-oxo-4,5-dihydropyrazolo[1,5-a]pyrazine-2-carboxamide] belongs 2.2 nM. As to `CC(C)(O)[C@@H](NC(=O)c1nn2cc(-c3ccc(Cl)c(Cl)c3)[nH]c(=O)c2c1C1CC1)c1ccc(F)cc1` [Example 1-168, 3-Cyclopropyl-6-(3,4-dichlorophenyl)-N-[(1S)-1-(4-fluorophenyl)-2-hydroxy-2-methylpropyl]-4-oxo-4,5-dihydropyrazolo[1,5-a]pyrazine-2-carboxamide], the IC50 worked out at 1.9 nM. Consider `CN1CC(NC(=O)c2nn3cc(-c4ccc(Cl)c(F)c4)[nH]c(=O)c3c2C2CC2)(c2ccc(F)cc2)C1` [Example 1-169, 6-(4-Chloro-3-fluorophenyl)-3-cyclopropyl-N-[3-(4-fluorophenyl)-1-methylazetidin-3-yl]-4-oxo-4,5-dihydropyrazolo[1,5-a]pyrazine-2-carboxamide], for which the concentration for half-maximal inhibition (IC50) came out at 3.35 nM. Regarding `CN1CC(NC(=O)c2nn3cc(-c4ccc(Cl)c(Cl)c4)[nH]c(=O)c3c2C2CC2)(c2ccc(F)cc2)C1` [Example 1-170, 3-Cyclopropyl-6-(3,4-dichlorophenyl)-N-[3-(4-fluorophenyl)-1-methylazetidin-3-yl]-4-oxo-4,5-dihydropyrazolo[1,5-a]pyrazine-2-carboxamide], the 50% inhibitory concentration (IC50) was determined as 2.5 nM.

For `Cc1cc(-c2cn3nc(C(=O)N[C@@H](c4ccc(F)cc4)C(F)(F)CO)c(C(F)(F)F)c3c(=O)[nH]2)ccc1Cl` [Example 1-171, 6-(4-Chloro-3-methylphenyl)-N-[(1S)-2,2-difluoro-1-(4-fluorophenyl)-3-hydroxpropyl]-4-oxo-3-(trifluoromethyl)-4,5-dihydropyrazolo[1,5-a]pyrazine-2-carboxamide], the IC50 stood at 1.03 nM.

As to `Cc1cc(-c2cn3nc(C(=O)N[C@@H](c4ccc(F)cc4)C(F)(F)CO)c(C4CC4)c3c(=O)[nH]2)ccc1Cl` [Example 1-172, 6-(4-Chloro-3-methylphenyl)-3-cyclopropyl-N-[(1S)-2,2-difluoro-1-(4-fluorophenyl)-3-hydroxpropyl]-4-oxo-4,5-dihydropyrazolo[1,5-a]pyrazine-2-carboxamide], the IC50 came to 0.86 nM.

For `Cc1cc(-c2cn3nc(C(=O)N[C@@H](c4ccc(F)cc4)C(C)(C)O)c(C4CC4)c3c(=O)[nH]2)ccc1Cl` [Example 1-173, 6-(4-Chloro-3-methylphenyl)-3-cyclopropyl-N-[(1S)-1-(4-fluorophenyl)-2-hydroxy-2-methylpropyl]-4-oxo-4,5-dihydropyrazolo[1,5-a]pyrazine-2-carboxamide], the IC50 worked out at 0.73 nM. To `Cc1ccc(-c2cn3nc(C(=O)NC4(c5ccc(F)cc5)CNC4)c(C(F)(F)F)c3c(=O)[nH]2)cc1C` [Example 1-175, 6-(3,4-Dimethylphenyl)-N-[3-(4-fluorophenyl)azetidin-3-yl]-4-oxo-3-(trifluoromethyl)-4,5-dihydropyrazolo[1,5-a]pyrazine-2-carboxamide-hydrogen chloride (1/1)] belongs 5 nM; to `CCN1CC(NC(=O)c2nn3cc(-c4ccc(C)c(C)c4)[nH]c(=O)c3c2C(F)(F)F)(c2ccc(F)cc2)C1` [Example 1-176, 6-(3,4-Dimethylphenyl)-N-[1-ethyl-3-(4-fluorophenyl)azetidin-3-yl]-4-oxo-3-(trifluoromethyl)-4,5-dihydropyrazolo[1,5-a]pyrazine-2-carboxamide], 1.67 nM; to `O=C(NC1(c2ccc(F)cc2)CN(C(CF)CF)C1)c1nn2cc(-c3ccc4ccccc4c3)[nH]c(=O)c2c1C(F)(F)F` [Example 1-177, N-[1-(1,3-Difluoropropan-2-yl)-3-(4-fluorophenyl)azetidin-3-yl]-6-(naphthalen-2-yl)-4-oxo-3-(trifluoro-methyl)-4,5-dihydropyrazolo[1,5-a]pyrazine-2-carboxamide], 5 nM. The result for `CC(NC(=O)c1cc2c(=O)[nH]c(-c3ccc4ccccc4c3)cn2n1)c1ccccc1` (stereo not drawn) [Example 2-1, 6-(2-Naphthyl)-4-oxo-N-(1-phenylethyl)-5H-pyrazolo[1,5-a]pyrazine-2-carboxamide] reads 2.07 nM; that for `COc1ccc(C(CCO)NC(=O)c2cc3c(=O)[nH]c(-c4ccc5ccccc5c4)cn3n2)cc1` (stereo not drawn) [Example 2-2, N-[3-Hydroxy-1-(4-methoxyphenyl)propyl]-6-(2-naphthyl)-4-oxo-4,5-dihydropyrazolo[1,5-a]pyrazine-2-carboxamide], 1.18 nM; that for `COc1ccc(C(C)NC(=O)c2cc3c(=O)[nH]c(-c4ccc5ccccc5c4)cn3n2)cc1` (stereo not drawn) [Example 2-3, N-[1-(4-Methoxyphenyl)ethyl]-6-(2-naphthyl)-4-oxo-4,5-dihydropyrazolo[1,5-a]pyrazine-2-carboxamide], 1.65 nM. To `O=C(NC(c1ccccc1)C(F)F)c1cc2c(=O)[nH]c(-c3ccc4ccccc4c3)cn2n1` (stereo not drawn) [Example 2-4, N-(2,2-Difluoro-1-phenylethyl)-6-(2-naphthyl)-4-oxo-4,5-dihydropyrazolo[1,5-a]pyrazine-2-carboxamide] belongs 1.07 nM; to `Cc1nn(C)cc1C(C)NC(=O)c1cc2c(=O)[nH]c(-c3ccc4ccccc4c3)cn2n1` (stereo not drawn) [Example 2-5, N-[1-(1,3-Dimethyl-1H-pyrazol-4-yl)ethyl]-6-(2-naphthyl)-4-oxo-4,5-dihydropyrazolo[1,5-a]pyrazine-2-carboxamide], 4 nM; to `C[C@H](NC(=O)c1cc2c(=O)[nH]c(-c3ccc4ccccc4c3)cn2n1)c1cccc2ccccc12` [Example 2-6], 8.75 nM. With `O=C(NCCc1ccc(F)cc1)c1cc2c(=O)[nH]c(-c3ccc4ccccc4c3)cn2n1` [Example 2-7, N-[2-(4-Fluorophenyl)ethyl]-6-(2-naphthyl)-4-oxo-4,5-dihydropyrazolo[1,5-a]pyrazine-2-carboxamide], the IC50 stood at 4.7 nM. The result for `COc1ccccc1C(C)NC(=O)c1cc2c(=O)[nH]c(-c3ccc4ccccc4c3)cn2n1` (stereo not drawn) [Example 2-8, N-[1-(2-Methoxyphenyl)ethyl]-6-(2-naphthyl)-4-oxo-4,5-dihydropyrazolo[1,5-a]pyrazine-2-carboxamide] reads 1.2 nM; that for `O=C(NCCc1ccccc1F)c1cc2c(=O)[nH]c(-c3ccc4ccccc4c3)cn2n1` [Example 2-9, N-[2-(2-Fluorophenyl)ethyl]-6-(2-naphthyl)-4-oxo-4,5-dihydropyrazolo[1,5-a]pyrazine-2-carboxamide], 3.65 nM. To `CCC(CNC(=O)c1cc2c(=O)[nH]c(-c3ccc4ccccc4c3)cn2n1)n1cc(Cl)cn1` (stereo not drawn) [Example 2-10, N-[2-(4-Chlor-1H-pyrazol-1-yl)butyl]-6-(2-naphthyl)-4-oxo-4,5-dihydropyrazolo[1,5-a]pyrazine-2-carboxamide] belongs 1.7 nM.

Values taken from patent US20220324865A1 (Bayer Aktiengesellschaft, priority 2018, published 2022).
